molecular target: T1, HIV protease (Human immunodeficiency virus type 1 group M subtype B, UniProt P04585); assay: HIV protease enzyme assay (fluorescence, substrate 2-Ile-Nle-Phe(p-NO2)-Gln-ArgNH2); assay type: biochemical; conditions: IC50 (nM), Table 21; HIV protease enzyme assay
T1 construct: HIV protease is diluted in the assay buffer to a final enzyme concentration of 12.3 nanomolar, based on a molecular weight of 10,780
Experimental: The enzyme method is described below. […] The positive control is MVT-101 (Miller, M. et al, Science, 246, 1149 (1989)] The assay conditions are as follows:
Assay buffer: 20 mM sodium phosphate, pH 6.4 20% glycerol 1 mM EDTA 1 mM DTT 0.1% CHAPS
The above described substrate is dissolved in DMSO, then diluted 10 fold in assay buffer. Final substrate concentration in the assay is 80 μM.
The final concentration of DMSO is 14% and the final concentration of glycerol is 18%. The test compound is dissolved in DMSO and diluted in DMSO to 10× the test concentration; 10 μl of the enzyme preparation is added, the materials mixed and then the mixture is incubated at ambient temperature for 15 minutes. The enzyme reaction is initiated by the addition of 40 μl of substrate. The increase in fluorescence is monitored at 4 time points (0, 8, 16 and 24 minutes) at ambient temperature. Each assay is carried out in duplicate wells.

Compound	IC50 [nM]
CC(C)CCN(C[C@@H](O)[C@H](Cc1ccccc1)NC(=O)[C@H](Cc1cnc[nH]1)NC(=O)c1ccc2ccccc2n1)S(=O)(=O)c1ccccc1 [Entry 12]	2

same assay, conditions: Table 18A; HIV protease enzyme assay; read-out: IC50

Compound	IC50 [nM]
CC(C)CCN(C[C@@H](O)[C@H](Cc1ccccc1)NC(=O)[C@H](Cc1c[nH]cn1)NC(=O)OCc1ccccc1)S(=O)(=O)c1ccccc1 [Entry 8]	4.2

same assay, conditions: Table 19B; @ 1 uM

Compound	IC50 (uM) or % inhib: % inhib @ 1 uM [%]
CC(C)CCN(C[C@@H](O)[C@H](Cc1ccccc1)NC(=O)OCc1ccccc1)S(=O)(=O)CCl [Table 1a Entry 52]	39

same assay, conditions: Table 19B; @ 10 uM

Compound	IC50 (uM) or % inhib: % inhib @ 10 uM [%]
CC(C)CCN(C[C@@H](O)[C@H](Cc1ccccc1)NC(=O)OCc1ccccc1)S(=O)(=O)CCl [Table 1a Entry 52]	81

same assay, conditions: Table 19B; HIV protease enzyme assay; read-out: IC50 (uM) or % inhib: IC50

Compound	IC50 [nM]
CC(C)CCN(CC(O)C(Cc1ccccc1)NC(=O)C(NC(=O)CBr)C(C)(C)C)S(=O)(=O)c1ccccc1 (centres unmarked) [Table 12 Entry 10]	3.3
CC(C)CN(C[C@@H](O)[C@H](Cc1ccccc1)NC(=O)OCc1ccccc1)S(=O)(=O)C=Cc1ccccc1 [Table 1a Entry 53]	49
CC(C)CCN(C[C@@H](O)[C@H](Cc1ccccc1)NC(=O)[C@H](CC(N)=O)NC(=O)OCc1ccccc1)S(=O)(=O)c1ccccc1 [Table 5 Entry 14]	2.2

same assay, conditions: Table 20; HIV protease enzyme assay; read-out: IC50 (uM) or % inhibition: IC50

Compound	IC50 [nM]
COc1ccc(S(=O)(=O)N(CC(C)C)CC(O)C(Cc2ccccc2)NC(=O)c2cccc(S(C)(=O)=O)c2)cc1 (centres unmarked) [Table 5A Entry 18]	130

same assay, conditions: Table 21; HIV protease enzyme assay; read-out: IC50

Compound	IC50 [nM]
COc1ccc(S(=O)(=O)N(CC(C)C)C[C@@H](O)[C@H](Cc2ccccc2)NC(=O)c2cccc(N(C)C)c2C)cc1 [Example 36]	310
Cc1ccccc1C(=O)N[C@@H](Cc1ccccc1)[C@H](O)CN(CC(C)C)S(=O)(=O)c1ccc(O)cc1 [Example 37]	7
COc1ccc(S(=O)(=O)N(CC(C)C)C[C@@H](O)[C@H](Cc2ccccc2)NC(=O)c2ccc([N+](=O)[O-])cc2C)cc1 [Example 50]	14
CC(C)CN(C[C@@H](O)[C@H](Cc1ccccc1)NC(=O)OCc1cccnc1)S(=O)(=O)c1ccc2c(c1)OCO2 [Example 69]	4
COc1ccc(S(=O)(=O)N(CC(C)C)C[C@@H](O)[C@H](Cc2ccccc2)NC(=O)O[C@H]2CCOC2)cc1 [Example 44]	4
COc1ccc(S(=O)(=O)N(CC(C)C)C[C@@H](O)[C@H](Cc2ccccc2)NC(=O)c2cccc([N+](=O)[O-])c2C)cc1 [Example 48]	17
CC(C)CN(C[C@@H](O)[C@H](Cc1ccccc1)NC(=O)COc1ccccc1)S(=O)(=O)c1ccc2ncsc2c1 [Example 78]	3
COc1ccc(S(=O)(=O)N(CC(C)C)C[C@@H](O)[C@H](Cc2ccccc2)NC(=O)O[C@H]2CCS(=O)(=O)C2)cc1 [Example 47]	3
COc1ccc(S(=O)(=O)N(CC(C)C)C[C@@H](O)[C@H](Cc2ccccc2)NC(=O)OCc2cc[n+]([O-])cc2)cc1 [Example 26]	68
CSCCCN(C[C@@H](O)[C@H](Cc1ccccc1)NC(=O)OCc1ccccc1)S(=O)(=O)c1ccccc1 [Entry 10]	45
CC(C)CN(C[C@@H](O)[C@H](Cc1ccccc1)NC(=O)OCc1cncs1)S(=O)(=O)c1ccc2c(c1)CCO2 [Example 67]	5
CC(C)CN(C[C@@H](O)[C@H](Cc1ccccc1)NC(=O)OCc1cccnc1)S(=O)(=O)c1ccc([N+](=O)[O-])cc1 [Example 19]	8
Cc1c(O)cccc1C(=O)N[C@@H](Cc1ccccc1)[C@H](O)CN(CC(C)C)S(=O)(=O)c1ccc2c(c1)OCO2 [Example 73]	4
COc1ccc(S(=O)(=O)N(CC(C)C)C[C@@H](O)[C@H](Cc2ccccc2)NC(=O)OCc2ccoc2)cc1 [Example 58]	2
Cc1c(O)cccc1C(=O)N[C@@H](Cc1ccccc1)[C@H](O)CN(CC(C)C)S(=O)(=O)c1ccc(N)cc1 [Example 63]	7
CC(C)CN(C[C@@H](O)[C@H](Cc1ccccc1)NC(=O)OCc1ccc(N)nc1)S(=O)(=O)c1ccc(O)cc1 [Example 40]	3
COc1ccc(S(=O)(=O)N(CC(C)C)C[C@@H](O)[C@H](Cc2ccccc2)NC(=O)C2CCCCC2)cc1 [Example 35]	18
CC(C)CN(C[C@@H](O)[C@H](Cc1ccccc1)NC(=O)OCc1cncs1)S(=O)(=O)c1ccc(N)cc1 [Example 61]	16

Source: patent USRE43802E1, “α- and β-amino acid hydroxyethylamino sulfonamides useful as retroviral protease inhibitors” (G.D. Searle LLC, priority 1992, dated 2012)
